Tested on: MCF-7 breast cancer cells
Assay: Microarray gene expression analysis (Agilent whole human genome 4 x 44K; compound vs DMSO, LIMMA log2 fold change)
Type: cell-based
Conditions: cell cycle genes

Cn1ncc2c(N3CCOCC3)nc(-c3cccc(O)c3)nc21 [ETP-45658]
TRIAP1 log2FC (Gene 51499): -0.820 | DTL log2FC (Gene 51514): 0.044 | SIRT7 log2FC (Gene 51547): 0.404 | CINP log2FC (Gene 51550): -0.074 | GINS2 log2FC (Gene 51659): -0.721 | NUP54 log2FC (Gene 53371): 0.683 | PELO log2FC (Gene 53918): -0.595 | WNT4 log2FC (Gene 54361): -0.709 | ANLN log2FC (Gene 54443): 0.699 | FBXW5 log2FC (Gene 54461): -0.054 | FAM64A log2FC (Gene 54478): 0.090 | DDX4 log2FC (Gene 54514): -0.146 | BTG4 log2FC (Gene 54766): 0.249 | NDE1 log2FC (Gene 54820): 0.535 | NSUN2 log2FC (Gene 54888): -0.186 | TTC19 log2FC (Gene 54902): 0.753 | TXNL4B log2FC (Gene 54957): 0.617 | BANP log2FC (Gene 54971): -0.168 | AURKAIP1 log2FC (Gene 54998): -0.353 | PHIP log2FC (Gene 55023): 1.243 | USP47 log2FC (Gene 55031): 0.762 | ZWILCH log2FC (Gene 55055): 0.619 | PIWIL2 log2FC (Gene 55124): -0.029 | CEP192 log2FC (Gene 55125): 0.534 | CDCA8 log2FC (Gene 55143): -0.107 | RFWD3 log2FC (Gene 55159): -0.597 | CEP55 log2FC (Gene 55165): 1.059 | CENPQ log2FC (Gene 55166): 0.796 | RIF1 log2FC (Gene 55183): 0.443 | ARL8B log2FC (Gene 55207): 0.686 | RCBTB1 log2FC (Gene 55213): 0.799 | CCDC87 log2FC (Gene 55231): -0.125 | STEAP3 log2FC (Gene 55240): -0.569 | MNS1 log2FC (Gene 55329): 0.765 | MCM10 log2FC (Gene 55388): -0.683 | SMPD3 log2FC (Gene 55512): -0.280 | TRIM36 log2FC (Gene 55521): 0.705 | RBM38 log2FC (Gene 55544): -0.536 | PRR5 log2FC (Gene 55615): 0.335 | PRPF40A log2FC (Gene 55660): 1.175 | CEP72 log2FC (Gene 55722): 0.344 | CHFR log2FC (Gene 55743): -0.026 | NUP133 log2FC (Gene 55746): 0.409 | CCAR1 log2FC (Gene 55749): 0.836 | CDK5RAP2 log2FC (Gene 55755): 0.516 | PCID2 log2FC (Gene 55795): 0.322 | CENPN log2FC (Gene 55839): 0.469 | PPP2R2D log2FC (Gene 55844): 0.037 | HDAC8 log2FC (Gene 55869): -0.325 | PBK log2FC (Gene 55872): 0.522 | BIN3 log2FC (Gene 55909): -0.746 | ERBB2IP log2FC (Gene 55914): 1.051 | RCC2 log2FC (Gene 55920): -0.248 | KLHL9 log2FC (Gene 55958): 0.133 | TEX11 log2FC (Gene 56159): -0.066 | TDRD1 log2FC (Gene 56165): 0.246 | PARD3 log2FC (Gene 56288): 0.418 | RPRM log2FC (Gene 56475): -0.078 | CYP26B1 log2FC (Gene 56603): 0.090 | SPIRE1 log2FC (Gene 56907): 0.377 | SMARCAD1 log2FC (Gene 56916): 0.653 | PRDM9 log2FC (Gene 56979): 0.085 | KIF15 log2FC (Gene 56992): 1.353 | PDXP log2FC (Gene 57026): -1.027 | PCBP4 log2FC (Gene 57060): -0.519 | CASC5 log2FC (Gene 57082): 0.187 | PCNP log2FC (Gene 57092): 0.687 | NUP107 log2FC (Gene 57122): 0.862 | CHMP1B log2FC (Gene 57132): 0.826 | PAK7 log2FC (Gene 57144): 0.396 | CSRP2BP log2FC (Gene 57325): 0.412 | TTYH1 log2FC (Gene 57348): -0.189 | BIRC6 log2FC (Gene 57448): 0.155 | MTA3 log2FC (Gene 57504): 0.345 | HACE1 log2FC (Gene 57531): 0.593 | TAOK1 log2FC (Gene 57551): 0.386 | USP37 log2FC (Gene 57695): 0.513 | FANCM log2FC (Gene 57697): 0.486 | CCNB1IP1 log2FC (Gene 57820): 1.174 | RHOU log2FC (Gene 58480): 1.289 | OVOL2 log2FC (Gene 58495): -0.133 | AVPI1 log2FC (Gene 60370): 0.391 | RINT1 log2FC (Gene 60561): 0.804 | FAM111A log2FC (Gene 63901): 0.319 | DMRTC2 log2FC (Gene 63946): -0.047 | CLSPN log2FC (Gene 63967): 0.066 | TSPYL2 log2FC (Gene 64061): -0.073 | DPEP3 log2FC (Gene 64180): -0.246 | RFWD2 log2FC (Gene 64326): 0.063 | CENPH log2FC (Gene 64946): 0.860 | MRPL41 log2FC (Gene 64975): -0.545 | INTS3 log2FC (Gene 65123): -0.455 | PHACTR4 log2FC (Gene 65979): 0.399 | BOLL log2FC (Gene 66037): -0.038 | MIS12 log2FC (Gene 79003): -0.429 | CENPM log2FC (Gene 79019): -0.105 | NUP37 log2FC (Gene 79023): 0.431 | ZNF655 log2FC (Gene 79027): 0.893 | CENPO log2FC (Gene 79172): -0.787 | E2F8 log2FC (Gene 79733): 0.114 | FBXO31 log2FC (Gene 79791): -0.232 | CSPP1 log2FC (Gene 79848): 0.754 | NEK11 log2FC (Gene 79858): 0.568 | MAP9 log2FC (Gene 79884): 1.193 | NUP85 log2FC (Gene 79902): 0.292 | CEP76 log2FC (Gene 79959): 0.323 | CENPT log2FC (Gene 80152): -0.175 | DBF4B log2FC (Gene 80174): -0.579 | CEP290 log2FC (Gene 80184): 0.854 | CEP63 log2FC (Gene 80254): 0.741 | CDK5RAP3 log2FC (Gene 80279): -0.091 | CEP70 log2FC (Gene 80321): 0.756 | TUBB1 log2FC (Gene 81027): -0.436 | NDEL1 log2FC (Gene 81565): -0.111 | FAM83D log2FC (Gene 81610): -0.088 | CAB39L log2FC (Gene 81617): 0.106 | CCNL2 log2FC (Gene 81669): 0.230 | CABLES2 log2FC (Gene 81928): -0.937 | KIF18A log2FC (Gene 81930): 1.204 | SESN2 log2FC (Gene 83667): -0.701 | SETDB2 log2FC (Gene 83852): 1.285 | GSG2 log2FC (Gene 83903): -0.491 | RASSF4 log2FC (Gene 83937): 0.185 | MND1 log2FC (Gene 84057): 0.497 | HORMAD1 log2FC (Gene 84072): 0.519 | USP44 log2FC (Gene 84101): -0.061 | CEP78 log2FC (Gene 84131): 0.550 | GINS4 log2FC (Gene 84296): -0.398 | RAB11FIP4 log2FC (Gene 84440): 0.575 | LZTS2 log2FC (Gene 84445): 0.831 | BRSK1 log2FC (Gene 84446): -0.038 | SPIRE2 log2FC (Gene 84501): 0.454 | PARD6B log2FC (Gene 84612): 0.731 | PPP1R9B log2FC (Gene 84687): -0.425 | SPATA22 log2FC (Gene 84690): -0.013 | BEX2 log2FC (Gene 84707): 0.736 | PSRC1 log2FC (Gene 84722): 0.114 | KLHL22 log2FC (Gene 84861): 0.165 | TBRG1 log2FC (Gene 84897): 0.370 | MASTL log2FC (Gene 84930): 0.592 | LSM10 log2FC (Gene 84967): -1.152 | CCNB3 log2FC (Gene 85417): 0.077 | LRRCC1 log2FC (Gene 85444): 0.773 | DIXDC1 log2FC (Gene 85458): 0.062 | PNPT1 log2FC (Gene 87178): 0.445 | LMLN log2FC (Gene 89782): 0.783 | KLHL13 log2FC (Gene 90293): 0.112 | GADD45GIP1 log2FC (Gene 90480): -0.402 | SLFN11 log2FC (Gene 91607): -0.432 | CENPL log2FC (Gene 91687): 0.066 | CABLES1 log2FC (Gene 91768): 1.627 | SYCE1 log2FC (Gene 93426): -0.072 | ACTR8 log2FC (Gene 93973): 0.366 | TP53INP1 log2FC (Gene 94241): 0.920 | CDCA5 log2FC (Gene 113130): 0.030 | TUBGCP5 log2FC (Gene 114791): 0.520

Source: PMC4303209, “A novel phosphatidylinositol 3-kinase (PI3K) inhibitor directs a potent FOXO-dependent, p53-independent cell cycle arrest phenotype characterized by the differential induction of a subset of FOXO-regulated genes” (Breast Cancer Research : BCR, 2014)
